Experimental data as given in US12173020B2, “New-type oxazolidinone compounds and preparation method therefor” (priority 2019, dated 2024).

Key:
[1] = system: vancomycin-resistant Enterococcus (VRE); test: agar dilution method, inhibitory effect on VRE; type: cell-based; conditions: for MIC50: Enterococcus, read-out: Minimum inhibitory concentration (MIC50, μg/ml) VRE
Text: (§1) In order to determine the antibacterial activity of these new oxazolidinone-based compounds, an agar dilution method was used to test the inhibitory effect on methicillin-resistant Staphylococcus aureus (MRSA) and vancomycin-resistant Enterococcus (VRE). The bacteria inhibition effect was expressed as minimum inhibitory concentration (MIC50, μg/ml) The test results are shown in the following table.

[2] = system: methicillin-resistant Staphylococcus aureus (MRSA); test: agar dilution method, inhibitory effect on MRSA; type: cell-based; conditions: for MIC50: Staphylococcus aureus, read-out: Minimum inhibitory concentration (MIC50, μg/ml) MRSA
Text: as §1

Row | SMILES | Minimum inhibitory concentration (MIC50, μg/ml) VRE [1] [µg/mL] | Minimum inhibitory concentration (MIC50, μg/ml) MRSA [2] [µg/mL] | MIC50 [1] [µg/mL] | MIC50 [2] [µg/mL]
1 | C=Cn1nnc(-c2ccc(-c3ccc(N4C[C@@H](C(O)C(F)F)OC4=O)cc3F)cn2)n1.O=P(O)(O)O (stereo partly drawn) [compound 152, (S)-3-(3-fluoro-4-(6-(2-vinyl-2H-tetrazol-5-yl)pyridin-3-yl)phenyl)-5-(1-hydroxy-2-difluoroethyl) oxazolidin-2-one phosphate] | 0.2 | 0.3 | – | –
2 | CCn1nnc(-c2ccc(-c3ccc(N4C[C@H](C(O)F)OC4=O)cc3F)cn2)n1.O=P(O)(O)O (stereo partly drawn) [compound 101, (R)-3-(3-fluoro-4-(6-(2-ethyl-2H-tetrazol-5-yl)pyridin-3-yl)phenyl)-5-(hydroxyfluoromethyl) oxazolidin-2-one phosphate] | – | – | 0.4 | 0.4
3 | Cn1nnc(-c2ccc(-c3ccc(N4C[C@@H](C(O)C(F)(F)F)OC4=O)cc3F)cn2)n1.O=P(O)(O)O (stereo partly drawn) [compound 94, (S)-3-(3-fluoro-4-(6-(2-methyl-2H-tetrazol-5-yl)pyridin-3-yl)phenyl)-5-(1-hydroxy-2-trifluoroethyl) oxazolidin-2-one phosphate] | 1.5 | 1.5 | – | –
4 | C=Cn1nnc(-c2ccc(-c3ccc(N4C[C@@H](C(O)CF)OC4=O)cc3F)cn2)n1.O=P(O)(O)O (stereo partly drawn) [compound 154, (S)-3-(3-fluoro-4-(6-(2-vinyl-2H-tetrazol-5-yl)pyridin-3-yl)phenyl)-5-(1-hydroxy-2-fluoroethyl) oxazolidin-2-one phosphate] | – | – | 0.3 | 0.4
